Results as given in article PMC11802874, “The hypolipidemic effect of MI-883, the combined CAR agonist/ PXR antagonist, in diet-induced hypercholesterolemia model” (Nature Communications, 2025).
“And” between values parts separate entries of the source, which are not always exact repeats. Equal entries are not always repeated.

Legend:
[1] = system: humanized PXR-CAR-CYP3A4/3A7 mice, plasma; test: Plasma metabolomics (HFD study); format: in vivo, mouse
Description: Metabolomic plasma analysis was performed using plasma samples from male PXR/CAR/CYP3A4 mice (n=5) treated with MI-883 in the proof-of-concept study involving a high-fat diet^23. Plasma samples were prepared on ice, and each sample was separated into two 20 μl aliquots. All prepared aliquots were then frozen and stored at −80°C until analysis. Plasma aliquots were thawed, and protein precipitation was performed by adding 60 μl of a mixture containing 40% methanol, 40% acetonitrile, and 20% water. Samples were mixed, incubated for 12 hours at -20°C, and then centrifuged at 20,000 g for 10 minutes. The supernatants were collected for analysis by LC-MS/MS. A pooled quality control sample was prepared by mixing 10 μl from each sample. LC separation was performed on an iHILIC® Classic column (iHILIC®-(P) Classic, HILIC Column, PEEK,100x2.1mm, 5µm, 200Å, Hilicon, Umeå, Sweden) using a water/acetonitrile gradient with 10 mM ammonium formate, starting from 95% to 42% over 15 minutes in both polarities. LC-MS/MS analysis was conducted on the ID-X Orbitrap Tribrid Mass Spectrometer (ThermoFisher Scientific).

THα = THα (Homo sapiens, UniProt P10827); test: Luciferase reporter gene assay THα, HepG2
THα, sequence (P10827 163-410 isoform P10827-2 limits assumed): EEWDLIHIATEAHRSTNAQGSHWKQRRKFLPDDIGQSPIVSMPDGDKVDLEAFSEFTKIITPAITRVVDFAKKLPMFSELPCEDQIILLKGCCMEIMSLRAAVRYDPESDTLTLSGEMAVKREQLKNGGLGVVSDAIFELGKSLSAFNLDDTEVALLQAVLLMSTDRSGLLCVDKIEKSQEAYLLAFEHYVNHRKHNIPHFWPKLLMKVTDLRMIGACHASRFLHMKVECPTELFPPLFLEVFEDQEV
Description: Gal4-LBD constructs of tested nuclear receptors have been used together with pGL4.31[luc2P/GAL4UAS/Hygro] luciferase reporter construct and pRL-TK Renilla expression vector (both from Promega, Hercules, USA) in HepG2 cells transfected with Lipofectamine 2000 or 3000 reagents. For GRα and FXR receptors, full-length expression vectors have been used with pGRE-luc or pFXRE-luc luciferase constructs. For the aryl hydrocarbon receptor (AhR), p1A1-luc construct was used with only pRL-TK vector for transfection normalization. A dual reporter assay (Promega, Hercules, USA) was used to analyze both firefly and Renilla luciferase activities.
Gal4-LBD constructs of tested nuclear receptors have been used together with pGL5-luc luciferase reporter construct and pRL-TK Renilla expression vector in HepG2 cells transfected with Lipofectamine 2000 or 3000 reagents. For GRα and FXR receptors, full-length expression vectors have been used with pGRE-luc or pFXRE-luc luciferase constructs. For the aryl hydrocarbon receptor (AhR), p1A1-luc construct was used with only pRL-TK vector for transfection normalization. […] Bars represent means±S.D. (n=3).

HepaRG cells = test: RT-qPCR mRNA expression in differentiated HepaRG cells
Description: HepaRG cells from Biopredic (Rennes, France) were cultivated and differentiated on the 12-well plates. […] Several batches of HepaRG KO CAR (CAR Knockout HepaRG™ Cells, MTOX1012-1VL, RRID:CVCL_B6AA) and PXR Knockout HepaRG™ Cells, MTOX1011-1VL, RRID:CVCL_B6AS) cells have been obtained from Sigma-Aldrich/Merck (Darmstadt, Germany) and cultivated according to the provider’s protocols. […] Experiments with HepaRG KO PXR and HepaRG KO CAR cells have been performed in duplicates at least in two independent experiments.
RT-qPCR was used to examine gene expression in 2D and 3D PHH, HepaRG cells, or in mouse liver or intestine (ileum) samples as we have described before[60]–[62].
All qRT-qPCR experiments including Trizol reagent (Life Technologies) total RNA isolation, reverse-transcription using a random hexaprimer, and the MMLV Reverse Transcriptase Kit (ThermoFisher Scientific) we have described before^19. qPCR was performed using TaqMan Fast Advanced Master Mix with TaqMan probes (ThermoFisher Scientific). […] The delta-delta method was used for gene expression quantification normalized to at least two reference genes. Three technical replicates were used for each reaction considering the MIQE guidelines. Data are presented as fold induction to vehicle-treated cells/animals.

[2] = FigS18c, plasma, individual animals
[3] = single agent 5: MI-883 5, Rif (5 μM) alone

## NC(=O)c1cc(Cn2cc(-c3c(-c4ccc(Cl)cc4)nc4cc(F)ccn34)nn2)ccc1Cl [MI-883, 2-chloro-5-((4-(2-(4-chlorophenyl)-7-fluoroimidazo[1,2-a]pyridin-3-yl)-1H-1,2,3-triazol-1-yl)methyl)benzamide]
[1]; [2]
  Isoleucine (plasma metabolomic data): 93.5 and 119.8 and 74.2 and 56.6 and 106.4 and 73.7
  Leucine (plasma metabolomic data): 53.5 and 73.3 and 34.8 and 24.3 and 49.7 and 38.6
  Valine (plasma metabolomic data): 2968.9 and 1967.5 and 1520.8 and 1183.5 and 1942.7 and 1962.8
[1]; HFD study, male mice
  plasma 2-hydroxy-3-oxopropanoate, change: 1.595 fold
  plasma 5-aminopentanoic acid (5-aminovalerate), change: 1.375 fold
  plasma isoleucine, change: 1.638 fold
  plasma small-molecule metabolome: no significant effect
THα
  NRs assays: TH (GL4-hTRa) (relative to ctrl, replicates): 1.64 and 1.08 and 1.31
HepaRG cells
  INSIG1 mRNA in HepaRG cells: significantly upregulated
  LDLR mRNA in HepaRG cells: significant PXR-dependent upregulation
  SREBF1 mRNA expression in HepaRG / KO cells: CAR-dependent downregulation
  SREBF2 mRNA expression in HepaRG cells: no significant effect
HepaRG cells; MI-883 1 μM
  HMGCR expression relative to control (replicates): 0.8473 and 0.6697 and 1.095 and 1.161 and 1.262 and 0.6816
  HMGCS2 expression relative to control (replicates): 0.9842 and 0.7188 and 1.1212 and 1.322
  PCSK9 expression relative to control (replicates): 0.9984 and 0.8995 and 1.064 and 1.124
HepaRG cells; MI-883 1 μM + Rif (5 μM)
  HMGCR expression relative to control (replicates): 1.453 and 0.9465 and 0.9544 and 1.191 and 1.542 and 0.8007
  HMGCS2 expression relative to control (replicates): 0.681 and 1.013 and 0.6433 and 0.4816
  PCSK9 expression relative to control (replicates): 0.8085 and 0.8006 and 1.133 and 0.9198
HepaRG cells; MI-883 5 μM
  HMGCR expression relative to control (replicates): 1.295 and 1.166 and 1.377 and 1.27 and 0.8404
  HMGCS2 expression relative to control (replicates): 0.5911 and 1.022
  PCSK9 expression relative to control (replicates): 0.6066 and 1.012
HepaRG cells; MI-883 5 μM + Rif (5 μM)
  HMGCR expression relative to control (replicates): 1.005 and 1.538 and 1.592 and 1.152 and 1.312
  HMGCS2 expression relative to control (replicates): 0.8846 and 0.5305
  PCSK9 expression relative to control (replicates): 1.035 and 0.636
HepaRG cells; MI-883 10 μM
  HMGCR expression relative to control (replicates): 1.683 and 0.9974 and 1.042 and 1.481
  HMGCS2 expression relative to control (replicates): 0.4009 and 0.6268 and 0.831 and 0.8846
  PCSK9 expression relative to control (replicates): 0.6175 and 0.9465 and 1.014 and 0.9985
HepaRG cells; MI-883 10 μM + Rif (5 μM)
  HMGCR expression relative to control (replicates): 1.336 and 1.4868 and 1.027 and 1.993
  HMGCS2 expression relative to control (replicates): 0.9594 and 1.125 and 0.477 and 0.8873
  PCSK9 expression relative to control (replicates): 1.314 and 0.9884 and 1.015 and 0.8211
HepaRG cells; MI-883 20 μM
  HMGCR expression relative to control (replicates): 1.186 and 1.442 and 1.1738
  HMGCS2 expression relative to control (replicates): 0.7901 and 0.8336 and 1.102
  PCSK9 expression relative to control (replicates): 0.9308 and 1.156 and 1.11
HepaRG cells; MI-883 20 μM + Rif (5 μM)
  HMGCR expression relative to control (replicates): 0.8382 and 1.516 and 1.756
  HMGCS2 expression relative to control (replicates): 1.0412 and 1.1415 and 0.9223
  PCSK9 expression relative to control (replicates): 1.334 and 1.4007 and 1.046
HepaRG cells; MI-883 1
  CYP7A1 mRNA fold (Fig. 3f,g sheet), replicates: 0.5746 and 0.6713 and 0.8972 and 0.7445
  INSIG1 mRNA fold (Fig. 3f,g sheet), replicates: 1.005 (2×) and 0.8339
  LDLR mRNA fold (Fig. 3f,g sheet), replicates: 1.161 and 1.262 and 0.9041 and 0.8572
  SREBF1 mRNA fold (Fig. 3f,g sheet), replicates: 0.7942 and 0.8996 and 0.7218
  SREBF2 mRNA fold (Fig. 3f,g sheet), replicates: 0.6439 and 0.7635 and 0.7748 and 1.065 and 0.7449 and 1.037
HepaRG cells; MI-883 1 (µM), 24 h
  mRNA fold, Fig. 3b sheet, first block (CYP3A4), replicates: 0.8362 and 0.801 and 0.9683 and 1.172 and 0.7446
  mRNA fold, Fig. 3b sheet, second block (gene not given; CYP2B6), replicates: 2.928 and 2.816 and 2.017 and 3.044 and 1.065
HepaRG cells; MI-883 1 + Rif (5 μM)
  mRNA fold, Fig. 3b sheet, first block (CYP3A4), replicates: 1.353 and 3.215 and 5.541
  mRNA fold, Fig. 3b sheet, second block (CYP2B6), replicates: 2.0016 and 2.546 and 5.3
HepaRG cells; MI-883 5
  CYP7A1 mRNA fold (Fig. 3f,g sheet), replicates: 0.5588 and 0.4759 and 0.4175
  INSIG1 mRNA fold (Fig. 3f,g sheet), replicates: 1.268 and 1.368 and 1.1831
  LDLR mRNA fold (Fig. 3f,g sheet), replicates: 1.377 and 1.27 and 1.084
  SQLE mRNA fold (Fig. 3f,g sheet), replicates: 1.181 (2×) and 1.026
  SREBF1 mRNA fold (Fig. 3f,g sheet), replicates: 0.6652 and 0.6777 and 0.7568
  SREBF2 mRNA fold (Fig. 3f,g sheet), replicates: 0.5404 and 1.004 and 0.7053
HepaRG cells; MI-883 5 + Rif (5 μM)
  mRNA fold, Fig. 3b sheet, first block (CYP3A4), replicates: 1.354 and 1.7483 and 1.162
  mRNA fold, Fig. 3b sheet, second block (CYP2B6), replicates: 2.182 and 1.817
HepaRG cells; MI-883 10
  CYP7A1 mRNA fold (Fig. 3f,g sheet), replicates: 0.4275 and 0.3155 and 0.5022 and 0.4393
  INSIG1 mRNA fold (Fig. 3f,g sheet), replicates: 1.223 and 1.042 and 1.225 and 1.172
  LDLR mRNA fold (Fig. 3f,g sheet), replicates: 1.481 and 1.183
  SQLE mRNA fold (Fig. 3f,g sheet), replicates: 1.043 and 1.272 and 0.888 and 1.111 and 1.1255
  SREBF1 mRNA fold (Fig. 3f,g sheet), replicates: 0.5595 and 0.8022 (2×) and 0.6597
  SREBF2 mRNA fold (Fig. 3f,g sheet), replicates: 0.6518 and 0.837 and 1.166 and 1.224 and 0.9179 and 0.9421
  mRNA fold, Fig. 3b sheet, first block (CYP3A4), replicates: 0.3642 and 0.6511 and 0.7047 and 0.8281 and 0.7972 and 0.5808
  mRNA fold, Fig. 3b sheet, second block (CYP2B6), replicates: 2.037 and 2.07 and 1.475 and 2.671 and 1.239 and 0.7631
HepaRG cells; MI-883 10 + Rif (5 μM)
  mRNA fold, Fig. 3b sheet, first block (CYP3A4), replicates: 0.875 and 1.224 and 1.6089 and 0.7778
  mRNA fold, Fig. 3b sheet, second block (CYP2B6), replicates: 1.519 and 3.467 and 2.287 and 1.0661
HepaRG cells; MI-883 20
  CYP7A1 mRNA fold (Fig. 3f,g sheet), replicates: 0.3598 and 0.7856
  INSIG1 mRNA fold (Fig. 3f,g sheet), replicates: 1.146 and 1.273
  LDLR mRNA fold (Fig. 3f,g sheet), replicates: 1.442 and 1.216 and 1.519
  SQLE mRNA fold (Fig. 3f,g sheet), replicates: 1.646 and 1.048
  SREBF1 mRNA fold (Fig. 3f,g sheet), replicates: 0.7299 and 0.7553
  SREBF2 mRNA fold (Fig. 3f,g sheet), replicates: 1.072 and 1.4 and 1.1431
  mRNA fold, Fig. 3b sheet, first block (CYP3A4), replicates: 0.6466 and 0.6905 and 0.8398 and 0.439
  mRNA fold, Fig. 3b sheet, second block (CYP2B6), replicates: 1.395 and 1.4687 and 2.208 and 1.5457
HepaRG cells; MI-883 20 + Rif (5 μM)
  mRNA fold, Fig. 3b sheet, first block (CYP3A4), replicates: 0.5897 and 1.016
  mRNA fold, Fig. 3b sheet, second block (CYP2B6), replicates: 0.9269 and 2.43 and 1.46
HepaRG cells; MI-883: in the absence and presence of rifampicin
  CYP7A1 mRNA in HepaRG cells: significant downregulation
HepaRG cells; MI-883 at 1 μM, SPA70
  rifampicin induction of SQLE mRNA in HepaRG cells: abrogated
HepaRG cells; Phenobarbital 500 μM, CITCO 1 μM, MI 883 1 μM, ctrl = 1
  CYP2B6 mRNA, RT-qPCR, HepaRG (Fig. 1f), replicates: 4.75 and 4.15 and 4.1
HepaRG cells; Supplementary Fig. 10
  ABCC4 and UGT1A1 genes in HepaRG cells: upregulated
HepaRG cells; [3]
  mRNA fold, Fig. 3b sheet, first block (CYP3A4), replicates: 0.6927 and 0.6641 and 0.6779
  mRNA fold, Fig. 3b sheet, second block (CYP2B6), replicates: 3.953 and 2.541 and 3.216
